Reference: US8877802B2 (priority 2005, dated 2014)
Where two headings read alike, the source gives them in different places.

How the values were obtained:
[1] = test system: DA-depleted DAT-KO (DDD) mice; assay: Grasping test of muscular rigidity in DDD mice; settings: as E1; 1 h after second dose
[2] = test system: DA-depleted DAT-KO (DDD) mice; assay: Akinesia test (forelimb steps in 30 s) in DDD mice; settings: as E7; 1 h after second dose
[3] = test system: DA-depleted DAT-KO (DDD) mice; assay: Catalepsy test (horizontal bar) in DDD mice; settings: for Catalepsy (sec) 2 h: as E4, 1 h after second dose
[4] = test system: DA-depleted DAT-KO (DDD) mice; settings: mouse, in vivo
DAT-KO mice [5] = assay: Neurotoxic regimen of (±)-MDMA, striatal tissue DA and 5-HT 7 d later; settings: (±)-MDMA 4 injections of 20 mg/kg IP, every 2 h, DAT-KO mice n=7
WT mice [6] = assay: Neurotoxic regimen of (±)-MDMA; settings: (±)-MDMA 4 injections of 20 mg/kg IP, every 2 h; WT mice n=7
DAT-KO mice [7] = assay: In vivo microdialysis of striatal extracellular DA
Procedure: (§1) Neurochemical assessments. Striatal tissue contents of DA and frontal cortical tissue levels of NE were assessed using HPLC-EC (high performance liquid chromatography with electrochemical detection) as described. In vivo microdialysis measurements of striatal extracellular DA levels in freely moving mice were performed at least 24 h after implantation of a microdialysis probe as described previously. Dialysate samples were assayed for DA using HPLC-EC.

[8] = test system: DA-depleted DAT-KO (DDD) mice; assay: Locomotor activity (forward locomotion, distance traveled) in DDD mice; settings: for effect in tests of forward locomotion or akinesia and rigidity: NE- and 5-HT-related drugs, data not shown
[9] = test system: DA-depleted DAT-KO (DDD) mice; assay: Ptosis score in DDD mice; settings: cumulative dosing, scale 0-4, n=4
haloperidol-treated rats = haloperidol-treated rats [84]; cited from earlier work
6-OH-DA-lesioned rats = 6-OH-DA-lesioned rats [85]; cited from earlier work
MPTP-treated monkeys = MPTP-treated monkeys [64]; cited from earlier work
DD mice = settings: [76], cited from earlier work
TA1 receptor = TA1 receptor (Rattus norvegicus, UniProt Q923Y9); settings: reported in [42]; cited from earlier work
Sequence of TA1 receptor (Q923Y9 whole entry): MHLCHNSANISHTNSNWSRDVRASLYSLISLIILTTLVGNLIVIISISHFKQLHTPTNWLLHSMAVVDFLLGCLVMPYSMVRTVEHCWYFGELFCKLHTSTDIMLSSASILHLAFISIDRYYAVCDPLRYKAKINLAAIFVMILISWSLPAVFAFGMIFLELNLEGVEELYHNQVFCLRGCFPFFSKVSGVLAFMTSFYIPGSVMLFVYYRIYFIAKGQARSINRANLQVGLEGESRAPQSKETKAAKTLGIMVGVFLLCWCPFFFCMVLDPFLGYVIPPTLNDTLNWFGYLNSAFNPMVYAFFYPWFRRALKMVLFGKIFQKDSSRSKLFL

WT mice [10] = assay: Locomotor activity after αMT; settings: αMT 250 mg/kg IP
WT mice [11] = assay: Striatal tissue DA by HPLC-EC after αMT; type: in vivo; settings: αMT 250 mg/kg IP; 4 h
Procedure: as §1

DAT-KO mice [12] = assay: Striatal tissue DA by HPLC-EC after αMT; type: in vivo; settings: αMT 250 mg/kg IP
Procedure: as §1

WT mice [13] = assay: In vivo microdialysis of striatal extracellular DA; settings: αMT 250 mg/kg IP; freely moving WT mice
Procedure: as §1

DAT-KO mice [14] = assay: Behavioral tests after αMT (akinesia, catalepsy, grasping, bracing, tremor, ptosis, righting reflex); settings: αMT 250 mg/kg IP
WT mice [15] = assay: Frontal cortex tissue NE by HPLC-EC after αMT; type: in vivo; settings: αMT 250 mg/kg IP; 8 h after treatment
Procedure: as §1

DAT-KO mice [16] = assay: Frontal cortex tissue NE by HPLC-EC after αMT; type: in vivo; settings: αMT 250 mg/kg IP; 8 h after treatment
Procedure: as §1

DAT-KO mice [17] = settings: 100 mg/kg IP once every 3 d for 40 wk; cited from earlier work
DAT-KO mice [18] = assay: Locomotor activity after αMT
[19] = DDD mice, drug 1 h after αMT 250 mg/kg IP

For `CCNC(C)Cc1cccc(C(F)(F)F)c1` (racemic) [(±)-Fenfluramine], the “Grasping test (sec) 2 h” value [1] was 8 ± 4 s, the “Akinesia (steps) 2 h” value [2] was 32 ± 6 steps and the “Catalepsy (sec) 2 h” value [3] was 138 ± 28 s.

In the case of `CC(N)Cc1ccc2c(c1)OCO2.Cl` (racemic) [(±)-MDA, (±)-3,4-methylenedioxyamphetamine HCl], the “manifestations of akinesia and rigidity” value [4] is reported as “effective in reducing manifestations of akinesia and rigidity”.

With `CNC(C)Cc1ccc2c(c1)OCO2.Cl` (racemic) [(±)-MDMA, (±)-3,4-methylenedioxymethamphetamine HCl] the “striatal tissue 5-HT” value (DAT-KO mice [5]) was 0.40±0.02 ng/mg tissue, the “striatal tissue DA” value (DAT-KO mice [5]) was 0.58±0.04 ng/mg tissue and the lethality (WT mice [6]) was “lethality of all treated WT mice”. The “manifestations of akinesia and rigidity” value [4] was “effective in reducing manifestations of akinesia and rigidity”.

In the case of `CNC(C)Cc1ccc2c(c1)OCO2.Cl` (single isomer, unassigned; (+)) [(+)-MDMA, (+)-3,4-methylenedioxymethamphetamine HCl], the “striatal extracellular DA in DDD mice” value (DAT-KO mice [7]; (+)-MDMA 100 mg/kg IP after αMT, in vivo microdialysis) is reported as “did not produce any detectable increase in striatal extracellular DA”, the “forward locomotion (distance traveled)” value ([8]; mouse, in vivo) is reported as “able to induce significant forward locomotion” and the “potentiation of locomotor-stimulating effect of subthreshold L-DOPA/carbidopa” value ([8]; mouse, in vivo) is reported as “potent synergistic effect”. The forward locomotion ([8]; mouse, in vivo, HCl) was “induced significant forward locomotion”.

In the case of `CCNC(C)Cc1cccc(C(F)(F)F)c1` (single isomer, unassigned; (-)) [(−)-Fenfluramine], the “Grasping test (sec) 2 h” value [1] is reported as 4 ± 1 s, the “Akinesia (steps) 2 h” value [2] is reported as 28 ± 5 steps and the “Catalepsy (sec) 2 h” value [3] is reported as 104 ± 31 s.

In the case of `CC(N)Cc1ccc(Cl)cc1` (stereo not shown) [4-chloro-amphetamine], the “manifestations of akinesia and rigidity” value [4] is reported as “effective in reducing manifestations of akinesia and rigidity”.

For `COc1ccc2[nH]cc(CCN(C)C)c2c1` [5-methoxy-N,N-dimethyltryptamine], the “effect in tests of forward locomotion or akinesia and rigidity” value (“effect in tests” below) ([8]; DDD mice) was “none were effective”.

For `Cc1ccc2[nH]cc(CCN(C)C)c2c1` [5-methyl-N,N-dimethyltryptamine], the “effect in tests” value ([8]; DDD mice) was “none were effective”.

In the case of `CCN[C@@H](C)Cc1cccc(C(F)(F)F)c1` [(+)-Fenfluramine], the “Grasping test (sec) 2 h” value [1] is reported as 9 ± 4 s, the “Akinesia (steps) 2 h” value [2] is reported as 21 ± 3 steps and the “Catalepsy (sec) 2 h” value [3] is reported as 113 ± 23 s.

For `CC(NC(C)(C)C)C(=O)c1cccc(Cl)c1` (stereo not shown) [Bupropion], the “Grasping test (sec) 2 h” value [1] was 16 ± 3 s, the “Akinesia (steps) 2 h” value [2] was 29 ± 11 steps and the “Catalepsy (sec) 2 h” value [3] was 123 ± 28 s.

For `C[C@@H](N)Cc1ccccc1` [L-Amphetamine], the “Grasping test (sec) 2 h” value [1] was 9 ± 3 s, the “Akinesia (steps) 2 h” value [2] was 29 ± 5 steps and the “Catalepsy (sec) 2 h” value [3] was 99 ± 36 s.

For `N[C@@H](Cc1ccc(O)c(O)c1)C(=O)O` [L-DOPA], the “forward locomotion (distance traveled)” value [8, 19] was “effectively restored locomotion”.

`N[C@H](C(=O)O)[C@H](O)c1ccc(O)c(O)c1` [L-DOPS, L-threo-3,4-dihydroxyphenylserine] gave a ptosis score ([9]; 1 h after 100 mg/kg IP) of 2.50±0.28, a ptosis score ([9]; 1 h after 200 mg/kg IP) of 0 and a ptosis score ([9]; 1 h after 400 mg/kg IP) of 0. The “effect in tests” value ([8]; DDD mice) was “none were effective”.

In the case of `CNC(C)Cc1ccc2c(c1)OCO2` (stereo not shown) [MDMA, 3,4-methylenedioxymethamphetamine], the anticataleptic effect (haloperidol-treated rats) is listed as “potent anticataleptic effect”, the antiakinetic effects (6-OH-DA-lesioned rats) is listed as “antiakinetic effects” and the antiakinetic effects (MPTP-treated monkeys) is listed as “antiakinetic effects”.

For `C[C@]12N[C@H](Cc3ccccc31)c1ccccc12` [MK-801], the “forward locomotion (distance traveled)” value [8, 19] was “not effective”, the “forward locomotion (distance traveled)” value ([8]; DDD mice, drug 1 h after αMT 250 mg/kg IP, listed as ME-801) was “did not result in a significant increase in forward locomotion” and the “manifestations of akinesia and rigidity” value [4] was “able to reduce rigidity”.

For `COc1ccc2[nH]cc(C3=CCNCC3)c2c1` [RU24969], the “effect in tests” value ([8]; DDD mice) was “none were effective”.

In the case of `CN1CCc2cccc3c2[C@H]1Cc1ccc(O)c(O)c1-3` [apomorphine], the “forward locomotion (distance traveled)” value [8, 19] is reported as “induced locomotion”.

In the case of `NCCc1ccccc1` [beta-phenylethylamine], the “forward locomotion (distance traveled)” value [8, 19] is reported as “did not induce forward locomotion” and the “stereotypic reactions, such as headweaving and sniffing” value ([8]; DDD mice, high doses, with or without inhibition of MAO) is reported as “did promote weak stereotypic reactions”.

For `Cn1c(=O)c2c(ncn2C)n(C)c1=O` [caffeine], the “forward locomotion (distance traveled)” value ([8]; mouse, in vivo) was “not effective”.

In the case of `Clc1cccc(Cl)c1N=C1NCCN1` [clonidine], the “effect in tests” value ([8]; DDD mice) is reported as “none were effective”.

In the case of `C[C@H](N)Cc1ccccc1` [d-amphetamine], the “effects on akinesia and rigidity after pretreatment with D1 and D2 DA antagonists” value [4] is given as “did not prevent the effects”, the “manifestations of akinesia and rigidity” value [4] is given as “effective in reducing manifestations of akinesia and rigidity” and the “locomotor activation in DD mice” value (DD mice; 5 mg/kg, first treatment) is given as “induced potent locomotor activation”. For the same molecule, the “locomotor activation in DD mice” value (DD mice; second treatment 2 h later, same dose) was “failed to induce locomotion”.

For `CN[C@@H](C)Cc1ccccc1` [d-methamphetamine], the “manifestations of akinesia and rigidity” value [4] was “effective in reducing manifestations of akinesia and rigidity”.

For `C#CCN(C)[C@H](C)Cc1ccccc1` [deprenyl], the “potentiation of locomotor-stimulating effect of subthreshold L-DOPA/carbidopa” value ([8]; DDD mice, L-DOPA/carbidopa 10/10 mg/kg IP 15 min after drug, distance traveled for 2 h) was “failed to potentiate”.

With `CNCCCN1c2ccccc2CCc2ccccc21` [desipramine] the “effect in tests” value ([8]; DDD mice) was “none were effective”.

For `CNCCC(Oc1ccc(C(F)(F)F)cc1)c1ccccc1` (stereo not shown) [fluoxetine], the “effect in tests” value ([8]; DDD mice) was “none were effective”.

In the case of `CN1Cc2c(N)cccc2C(c2ccccc2)C1` (stereo not shown) [nomifensine], the “activity at TA1 receptor” value (TA1 receptor) is given as “can also potently activate TA1 receptor”, the “forward locomotion (distance traveled)” value [8, 19] is given as “not effective” and the reversing catalepsy ([3]; DDD mice, cumulative treatment with 10 and 30 mg/kg IP) is given as “not effective”. For the same molecule, the “manifestations of akinesia and rigidity” value [4] was “significantly reduced akinesia and rigidity”.

With `CCCN1C[C@H](CSC)C[C@@H]2c3cccc4[nH]cc(c34)C[C@H]21` [pergolide] the “forward locomotion (distance traveled)” value [8, 19] was “induced locomotion”.

For `CC(C)(N)Cc1ccccc1` [phentermine], the “effects on akinesia and rigidity after pretreatment with D1 and D2 DA antagonists” value [4] was “did not prevent the effects” and the “manifestations of akinesia and rigidity” value [4] was “effective in reducing manifestations of akinesia and rigidity”.

For `CC(N)(Cc1ccc(O)cc1)C(=O)O` (stereo not drawn) [αMT, α-methyl-p-tyrosine], the “total distance traveled for 210 min after drug administration” value (WT mice [10]) was 505±98 cm/210 min, the “depletion of striatal tissue DA” value (WT mice [11]) was 60% and the “duration of the striatal DA depletion” value (DAT-KO mice [12]) was “up to 16 h”. The “striatal DA remaining after depletion” value (DAT-KO mice [12]; 15 min) was 5 % of control levels in DAT-KO mice, the “striatal DA remaining after depletion” value (DAT-KO mice [12]; DAT-KO mice, expressed against WT control) was “less than 0.2 % of WT control levels” and the “effect on extracellular DA levels in striatum” value (WT mice [13]) was “only a partial decrease”. The “effect on extracellular DA levels in striatum” value (DAT-KO mice [7]; αMT 250 mg/kg IP, freely moving DAT-KO mice) was “essentially eliminated extracellular DA levels”, the “akinesia, catalepsy, grasping, bracing, tremor and ptosis tests” value (DAT-KO mice [14]) was “induced profound alterations” and the righting reflex (DAT-KO mice [14]) was “did not affect the righting reflex”. The “NE depletion in frontal cortex” value (WT mice [15]) was “about 60%”, the “NE depletion in frontal cortex” value (DAT-KO mice [16]) was “about 60%” and the “consequences of chronic treatment” value (DAT-KO mice [17]) was “showed no negative consequences”. The “time to restoration of locomotor activity” value (DAT-KO mice [18]; after αMT 250 mg/kg IP) was 16 to 24 h and the “total distance traveled for 210 min after drug administration” value (DAT-KO mice [18]; αMT 250 mg/kg IP) was 448±75 cm/210 min.
